Assay results taken from patent EP0412158A1, “ONCOSTATIC DRUG” (priority 1987, dated 1988).
Read-outs that look alike come from different tables or passages of the source.

Key:
[1] = system: methyl cholanthrene A tumor; assay: Methyl cholanthrene A tumor, evaluation by size of tumor (Examples 31 to 33); type: in vivo, female BALB/C mice
Procedure: A heteropoly acid salt, Na5[IM06O24]•34H2O (Compound M), and other compounds (Compounds N and O ) were severally dissolved in distilled water to obtain aqueous solutions containing the salts in a fixed concentration of 10 mg/ml. To female BALB/C mice (five weeks old) to which methyl cholanthrene A tumor had been transplanted, the aqueous solutions were administered to test the compounds for antineoplastic activity. To be specific, the methyl cholanthrene A was transplanted to the mice at a ratio of 1.0 x 10^5 cells per mouse and the aqueous solutions were administered ([…]) for 9 consecutive days by intraperitoneal injection. On elapse of 14 and 21 days after the stop of the administration, the sizes of tumors in the mice were measured. For comparison, mice to which no aqueous solution was administered and mice to which aminonitrosourea was administered were similarly tested.

MM-46 breast cancer = type: in vivo, female C3H/He mice
Procedure: The aforementioned active compound M was dissolved in distilled water to obtain an aqueous solution containing the compound in a concentration of 10 mg/ml. To female C3H/He mice (five weeks old) to which MM-46 breast cancer was transplanted in a ratio of 1.0 x 10^5 cells per mouse, the aqueous solution was administered intraperitoneally (ip) or orally (po) at a dose of 100 mg and a dose of 200 mg per kg of body weight for 9 consecutive days to measure the periods of the mices survival. For comparison, mice to which no aqueous solution was administered was similarly tested.

## Nas [IMo6O24] • 34H2O [Compound M]
[1]; 100 mg/kg, ip × 9 (D1~D9)
  Average weight of tumor after elapse of 14 days ± SE: 191.1±38.8(7) mg
[1]; 100 mg/kg.ip for 9 consecutive days, judged by increase of body weight, result in words
  toxicity: very slight toxicity
MM-46 breast cancer; 100 mg/kg/day ip×9
  % ILS: 100.9%
  (column without head: number of mice/total number of mice): 1/7
  Average days of survival ±SE: 55.1±8.7(7) days
MM-46 breast cancer; 200 mg/kg/day po×9
  % ILS: 59.7%
  (column without head: number of mice/total number of mice): 0/6
  Average days of survival ±SE: 43.8±3.9(6) days
